Tests used:
[1] = target: central benzodiazepine receptor; assay: Binding at the central benzodiazepine receptor (competition of specific binding); conditions: rat cerebral cortex; for IC50: 10 concentrations in duplicate, nonlinear regression; for Ki: inhibition constant calculated from competition curves
Procedure: (§1) The binding of N-desmethylzopiclone was determined at the central benzodiazepine receptor and at the non-selective muscarinic receptor, both of which were isolated from rat cerebral cortex. Compounds were tested initially at 10 μM in duplicate, and if at least a 50% inhibition of specific binding was observed, they were tested further at 10 different concentrations in duplicate in order to obtain full competition curves. IC50 values (concentration required to inhibit 50% specific binding) were determined by nonlinear regression analysis of the curves, and inhibition constants (Ki) were also calculated.

[2] = system: non-selective muscarinic receptor; assay: Binding at the non-selective muscarinic receptor; conditions: rat cerebral cortex; tested at 10 μM in duplicate
Procedure: as §1

[3] = healthy humans; cited from earlier work
[4] = as reported by Goa and Heel, Drugs 32:48-65 (1986); cited from earlier work

SMILES | IC50 [1] | Ki [1] | Muscarinic (% Inhibition) [2] | share of an oral dose of racemic zopiclone accounted for by the metabolite [3] | reported pharmacological activity [4]
O=C(OC1c2nccnc2C(=O)N1c1ccc(Cl)cn1)N1CCNCC1 (racemic) [(±)-N-desmethylzopiclone] | 1100 nM | 924 nM | 10% |  | 
O=C(O[C@H]1c2nccnc2C(=O)N1c1ccc(Cl)cn1)N1CCNCC1 [(+)-N-desmethylzopiclone] | 545 nM | 458 nM | 19% |  | 
O=C(O[C@@H]1c2nccnc2C(=O)N1c1ccc(Cl)cn1)N1CCNCC1 [(−)-N-desmethylzopiclone] | 7090 nM | 5960 nM | 24% |  | 
CN1C(=O)CN=C(c2ccccc2)c2cc(Cl)ccc21 [Diazepam, reference compound] | 12 nM | 10 nM |  |  | 
O=C(O[C@H]1c2nccnc2C(=O)N1c1ccc(Cl)cn1)N1CCNCC1 [N-desmethylzopiclone] |  |  |  | 15% | inactive
C[N+]1([O-])CCN(C(=O)O[C@H]2c3nccnc3C(=O)N2c2ccc(Cl)cn2)CC1 [N-oxidezopiclone, reference compound] |  |  |  | 11% | less active than zopiclone

— US6946464B2, “Methods of treating and preventing a convulsive state” (Sepracor Inc., priority 1999, dated 2005)
